Tested on: CKD stage 5 subjects on hemodialysis (HD) or peritoneal dialysis (PD)
Experiment: Double-blind, placebo-controlled, multicenter studies of paricalcitol capsule in secondary hyperparathyroidism
Type: in vivo, human
Details: for duration of iPTH/PTH reduction: HD and PD subjects, 12-week treatment; for AE (adverse event) profile: versus placebo group
Description: Paricalcitol capsule is an oral formulation of paricalcitol injection, a vitamin D analog effective in the prevention and treatment of SHPT associated with chronic renal failure. Three doubleblind, placebo-controlled, multicenter studies were conducted to evaluate the safety and efficacy of paricalcitol capsule in CKD stage 5 subjects on hemodialysis (HD) or peritoneal dialysis (PD). After a 4-8 week washout period, 225 subjects (HD: 150, PD: 75) with iPTH≧300 pg/mL, serum Ca 8.0-10.5 mg/dL and Ca×P04<65 were randomized (1:1) and treated with paricalcitol capsule or placebo 3× weekly for 12 weeks. Initial doses were based on iPTH levels at baseline (initial mcg dose=iPTH/60). Subsequent dose adjustments of 2 mcg were based on the weekly Ca, Ca×P04, and iPTH results; dose increases occurred every 2 weeks and decreases once per week.

## C[C@H](/C=C/[C@H](C)C(C)(C)O)[C@H]1CC[C@H]2/C(=C/C=C3C[C@@H](O)C[C@H](O)C3)CCC[C@]12C [paricalcitol]
95/105 subjects, capsule 3x weekly for 12 weeks, initial mcg dose = iPTH/60, p<0.001 vs placebo
  subjects with 2 consecutive 30 decreases in iPTH: 90%
  duration of iPTH/PTH reduction: sustained throughout the treatment
  AE (adverse event) profile: comparable between the groups
Listed as paricalcitol capsule
  duration of iPTH/PTH reduction: sustained reduction of PTH
  AE (adverse event) profile: comparable to placebo
By Week 3, 3x weekly dosing
  mean iPTH reduction: 30%
demographics, disease severity, baseline P04, phosphate binder type
  influence of subject factors on efficacy: not influenced by demographics, disease severity, baseline P04 or types of phosphate binder usage
Increased initially to the maximum, then decreased
  mean serum P04, maximum value: 5.7 mg/dL
Throughout 12-week treatment
  mean Ca: under 10.0 mg/dL
